From PubChem BioAssay (NCI)
“And” between values parts separate entries of the source, which are not always exact repeats. Equal entries are not always repeated.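 Assay format: 96-well plates, 48-hour exposure. Abbreviation: GI50, concentration required for 50% inhibition of growth. TGI: concentration producing complete growth inhibition.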

Experiments:
Experiment in all cases: NCI-60 cell line screen, 48 h
[1] = tested on: HOP-62 NSCLC
[2] = tested on: HOP-92 NSCLC
[3] = tested on: MDA-MB-435
[4] = tested on: K-562 leukemia
[5] = tested on: UO-31 renal
[6] = tested on: MALME-3M melanoma
[7] = tested on: NCI-H226 lung
[8] = tested on: M14 melanoma
[9] = tested on: SNB-19 CNS
[10] = tested on: COLO 205 colon

Row | SMILES | GI50 [1] [µM] | TGI [1] [µM] | GI50 [2] | TGI [2] | GI50 [3] | TGI [3] | GI50 [4] | TGI [4] [µM] | GI50 [5] | TGI [5] | GI50 [6] | TGI [6] | GI50 [7] [µM] | TGI [7] [µM] | GI50 [8] | TGI [8] | GI50 [9] | TGI [9] | GI50 [10] [µM] | TGI [10] [µM]
1 | COC(=O)C1C(C(=O)O)C2(c3ccccc3)C(=O)C1(c1ccccc1)C(c1ccc(OC)cc1)=C2c1ccc(OC)cc1 (stereo not drawn) | 20.4 | 47.5 | 4.87 µM | 28.4 µM | 28.8 µM | 60.7 µM | 28.4 µM | > 100 | 25.8 µM | 75 µM | 29.8 µM | 75.7 µM | 21.9 | 55.6 | 18.6 µM | 34.8 µM | 22.4 µM | 77.3 µM | 16.4 | 38.8
2 | c1cc[n+](Cc2c3ccccc3cc3c2ccc2ccccc23)cc1 | 2.41 | 11.7 | 1.56 µM | 6.97 µM | 3.29 µM | 12.2 µM | 3.21 µM | 17.8 | 27.5 µM | > 100 µM | 1.56 µM | 3.91 µM | 2.92 | 24.8 | 5.05 µM | 19.7 µM | 1.18 µM | 7.85 µM | 1.88 | 5.24
3 | COc1ccc(C2=C(c3ccccc3)C(=O)N3CCCC3C2)cc1 (stereo not drawn) | 39.8 | > 100 | > 100 µM | > 100 µM | 5.32 µM | > 100 µM | 0.0893 µM | > 100 | 2.93 µM | > 100 µM | > 100 µM | > 100 µM | – | > 100 | 9.54 µM | > 100 µM | 8.01 µM | > 100 µM | 0.241 | > 100
4 | COc1ccc2[nH]c(C(=O)OCc3ccc4c(Br)cc(Br)c(O)c4n3)cc2c1 | 1.38 | 3.34 | 0.352 µM | 1.75 µM | 0.836 µM | 2.2 µM | 0.495 µM | 4.94 | 0.36 µM | 1.85 µM | 1.45 µM | 2.85 µM | 1.3 | 2.81 | 0.83 µM | 2.29 µM | 1.5 µM | 2.89 µM | 0.442 | 1.92
5 | CS(=O)(=O)N1CCC(Nc2ncc(C(=O)c3c(F)cccc3F)c(N)n2)CC1 | 12.6 | > 25 | 1.96 µM | > 20.8 µM | 11.1 µM | > 25 µM | 20.4 µM | > 25 | 12 µM | > 25 µM | 10.6 µM | > 25 µM | 7.27 | > 25 | 19.4 µM | > 25 µM | 6.45 µM | > 25 µM | 6.26 | > 25
6 | CC[C@]12C=CCN3CC[C@]4(C(=C(C(=O)OC)C1)Nc1cc5c(cc14)[C@@H]1[C@H](O5)[C@@H](O)[C@@]4(CC)CC(C(=O)OC)=C5Nc6ccccc6[C@@]56CCN1[C@@H]46)[C@@H]32 | 0.319 | > 100 | 0.114 µM and 0.138 µM | 12.4 µM and 9.48 µM | 0.395 µM and 0.309 µM | 25 µM and 10.8 µM | 0.129 µM and 0.276 µM | – | 0.0951 µM and 0.127 µM | 3.31 µM and 6.25 µM | 0.412 µM and 0.431 µM | 3.45 µM and 15.2 µM | 0.688 | 25 | 0.517 µM and 0.385 µM | 25 µM and > 100 µM | 0.644 µM and 0.592 µM | 25 µM and 42.1 µM | 0.0695 | 2.78
7 | Nc1c(C(=O)Nc2cccc(Cl)c2)sc2nc3c(cc12)C(O)CCC3 (stereo not drawn) | 0.569 | 23.9 | 0.824 µM | 38.2 µM | 0.121 µM | 0.408 µM | 0.207 µM | 22.9 | 1.1 µM | 26.8 µM | 0.485 µM | 33.3 µM | 2.68 | 38.1 | 0.367 µM | > 49.7 µM | 4.35 µM | 99.4 µM | 0.348 | 3.53
8 | COc1ccccc1CNCCCN1C(=O)c2ccc3c4c(ccc(c24)C1=O)C(=O)N(CCCNCCCCNCCCN)C3=O | 0.658 | 2.25 | 0.67 µM | 5.23 µM | 0.213 µM | 0.494 µM | 0.302 µM | 7.05 | 2.66 µM | 16.2 µM | 0.241 µM | 0.546 µM | 0.911 | 2.71 | 0.645 µM | 2.08 µM | 0.574 µM | 3.97 µM | 0.168 | 0.317
9 | Cc1nc2ccc(-n3ncc(C(=O)c4cc5ccccc5[nH]4)c3N)cc2[nH]1 | 4.9 | 51.6 | 21.9 µM | 98.9 µM | 14.5 µM | > 100 µM | 3.07 µM | > 100 | 10 µM | 33.2 µM | 13.9 µM | 83.1 µM | 10.5 | 49.9 | 12.2 µM | 63.4 µM | 15.4 µM | > 100 µM | 4.77 | 29.1
10 | C=C(C(=O)c1ccccc1)C(NC(C)(C)C)c1ccccc1 (stereo not drawn) | 3.38 | 10.4 | 2.38 µM | 6.83 µM | 2.11 µM | 11 µM | 1.91 µM | 11.5 | 1.38 µM | 2.85 µM | 1.91 µM | 4.33 µM | 1.63 | 4.56 | 1.87 µM | 4.65 µM | 4.2 µM | 16 µM | 1.29 | 2.81
11 | Cc1cc(O)ccc1C1(c2ccc(O)cc2C)OC(=O)c2ccccc21 | 16.7 | 32.5 | 15.4 µM | 29.7 µM | 15.6 µM | 29.7 µM | 28 µM | > 100 | 18.1 µM | 36.7 µM | 17.9 µM | 37.9 µM | 19.1 | 41 | 18.3 µM | 37.1 µM | 18.7 µM | 35.2 µM | 16.8 | 32.3
12 | Cc1ccc(C2=NN(c3ccc(S(=O)(=O)NC(=O)NCc4ccccc4)cc3)C(c3ccc(N(C)C)cc3)C2)c(C)c1 (stereo not drawn) | 5.69 | 28 | 2.64 µM | 8.58 µM | 2.51 µM | 7.08 µM | 3.51 µM | > 100 | 4.27 µM | 15.7 µM | 2.9 µM | 9.14 µM | 3.91 | 15.9 | 3.57 µM | 23.4 µM | 4.6 µM | > 100 µM | 3.71 | 10.4
13 | CC(C)[C@@]12C[C@@H](OC(=O)COC(=O)c3ccccc3)[C@@](C)(O1)[C@@H]1CC[C@@H](C)[C@H]1[C@@H]2OC(=O)/C=C/c1ccccc1 | > 100 | > 100 | 33.5 µM | > 100 µM | > 100 µM | > 100 µM | 62.7 µM | > 100 | 0.115 µM | 1.66 µM | > 100 µM | > 100 µM | 18.7 | > 100 | > 100 µM | > 100 µM | > 100 µM | > 100 µM | > 100 | > 100
14 | CCc1ccc(Oc2c(-c3ccc(OCCc4cccc(C(F)(F)F)c4)cc3O)n[nH]c2C(F)(F)F)cc1 | 5.76 | 12 | 1.36 µM | 5.01 µM | 3.71 µM | 10.3 µM | 1.8 µM | 6.1 | 2.07 µM | 8.08 µM | 5.42 µM | 11.8 µM | 6.9 | 14.3 | 5.23 µM | 11.9 µM | 2.69 µM | 9.03 µM | 8.72 | 15.8
15 | CC(C)c1cnc(-c2cc(Cl)ccc2F)cc1Nc1ccncc1C(=O)NC(CO)CO | 12.8 | 32.9 | 1.33 µM | 35.4 µM | 16.1 µM | 30.4 µM | 12.3 µM | 46.5 | 2.87 µM | 21.9 µM | 17.2 µM | 34.4 µM | 13.6 | 34.8 | 17.8 µM | 39 µM | 15.6 µM | 54 µM | 14.9 | 33.9
16 | Cc1ccc2ncnc(N(C)C3CCCCC3)c2c1 | 28.7 | > 100 | 14.6 µM | 42.7 µM | 23 µM | 68.2 µM | 13.5 µM | 94.4 | 24.5 µM | > 100 µM | 56 µM | > 100 µM | 18.7 | 58.4 | 24.3 µM | 63.4 µM | 59.5 µM | > 100 µM | 35.1 | > 100
17 | Cn1c2c(c3ccccc31)CCN1C[C@@H]3CCCC[C@H]3C[C@@H]21 | 3.32 | > 36.2 | 3.44 µM | 34.2 µM | 1.56 µM | > 20.6 µM | 2.07 µM | > 36 | 2.2 µM | 13.7 µM | 4.22 µM | > 55.8 µM | 2.75 | > 26.1 | 2.95 µM | 18.4 µM | 5.15 µM | > 100 µM | 2.04 | 4.68
18 | CCOC(=O)c1c(C)n([O-])c2cc(F)c(F)cc2[n+]1=O | 2.1 | 3.74 | 1.1 µM | 3.08 µM | 1.56 µM | 3.11 µM | 0.697 µM | > 20.4 | 1.44 µM | 2.85 µM | 0.717 µM | 1.83 µM | 1.94 | 3.94 | 1.09 µM | 2.58 µM | 1.53 µM | 2.86 µM | 1.94 | 4.54
19 | O=C(Cc1cc(O)ccc1O)NO | > 100 | > 100 | 21.3 µM | 59.6 µM | 15.4 µM | 31.2 µM | 21.2 µM | 45.8 | > 100 µM | > 100 µM | 29.1 µM | > 100 µM | 70 | > 100 | > 100 µM | > 100 µM | 31.2 µM | > 100 µM | 18.6 | 36.3
20 | C[n+]1cccc(NC(=O)c2ccc3ccc4ccc(C(=O)Nc5ccc[n+](C)c5)nc4c3n2)c1 | 1.83 | 97.5 | 7.15 µM | > 65.1 µM | 6.2 µM | > 100 µM | 2.4 µM | > 100 | > 20.2 µM | > 100 µM | > 89.1 µM | > 100 µM | 0.121 | 0.693 | 3.67 µM | > 100 µM | 1.61 µM | > 27 µM | 4.35 | > 100
